Data: patent publication US7033829B2, “Method to inhibit cell growth using oligonucleotides” (Trustees of Boston University, priority 2000, dated 2006)
Oligonucleotides are written 5' to 3', each unit as a sugar letter and its base; * is a phosphorothioate linkage, no mark a phosphodiester; rarer units and linkages stand in square brackets, end groups in braces. Plain capitals give the bases only. d = 2'-deoxy (DNA); {P} = phosphate

Experiments:
[1] = system: Jurkat cells; assay: FACS cell cycle / apoptosis analysis of Jurkat cells; type: cell-based, human; details: for cell cycle profile: 0.4 μM; for apoptosis in human T cells: summary of Example 13; for cells accumulated in the S-phase: 5 μM, within 72 hours (diluent 36%)
Procedure: Oligonucleotides homologous to the telomere overhang repeat sequence (TTAGGG; SEQ ID NO:11), sequence (11mer-1: pGTTAGGGTTAG; SEQ ID NO: 5), complementary to this sequence (11mer-2: pCTAACCCTAAC; SEQ ID NO: 9) and unrelated to the telomere sequence (11mer-3: pGATCGATCGAT; SEQ ID NO: 10) were added to cultures of Jurkat cells, a line of human T cells, one of the cell types reported to undergo apoptosis in response to telomere disruption. Within 48 hours, 50% of the cells treated with 40 μM of SEQ ID NO: 5 had accumulated in the S phase, compared to 25–30% for control cells (p<0.0003, non-paired t-test; see FIGS. 19A–19D), and by 72 hours, 13% of these cells were apoptotic as determined by a sub-G0/G1 DNA content, compared to 2–3% of controls (p<0.007, non-paired t-test; see FIGS. 19E–19H). At 96 hours, 20±3% of the 11mer-1 treated cells were apoptotic compared with 3–5% of controls (p<0.0001, non-paired t-test). To exclude preferential uptake of the 11mer-1 as an explanation of its singular effects, Jurkat cells were treated with oligonucleotides labeled on the 3′ end with fluorescein phosphoramidite, then subjected to confocal microscopy and FACS analysis. The fluorescence intensity of the cells was the same after all treatments at 4 hours and 24 hours.
Three DNA oligonucleotides were designed initially: one homologous to the telomere overhang (11mer-1: pGTTAGGGTTAG; SEQ ID NO:5), one complementary to this sequence (11mer-2: pCTAACCCTAAC; SEQ ID NO:9) and one unrelated (11mer-3: pGATCGATCGAT; SEQ ID NO:10). For later experiments, additional 11 base oligonucleotides were designed: one a simple permutation of 11mer-1 (pGGGTTAGGGTT; SEQ ID NO:13), one with the same number of G residues but roughly 50% rather than 100% homology to the overhang (pTAGATGTGGTG; SEQ ID NO:14), and one with roughly 50% overhang homology but also containing cytosine bases (pCGGGCTTATTG; SEQ ID NO:15) (Midland Certified Reagent Company, Midland, Tex.). Cell Sources and Culture Human neonatal fibroblasts were established and cultured as previously described (Eller, M. S., et al., 1997, Proc Natl Acad Sci USA 94: 12627–12632). Fibroblasts from a Nijmegen breakage syndrome (NBS) patient (#GM07166) and an age-matched control (GM03399) were purchased from the NIGMS Human Cell Repository, Coriell Institute for Medical Research, Camden, N.J.) and cultured in DMEM/15% FBS. Saos-2 cells were purchased from the American Type Culture Collection (ATCC; Manassas, Va.). SCC12F cells were the kind gift of Dr. James Rheinwald, Harvard University. Cell Cycle Analysis The established line of human T lymphocytes, termed Jurkat cells (180,000 cells/ml) were plated in RPMI medium 1640 supplemented with 3% FBS (both from GIBCO/BRL, Gaithersburg, Md.). […] Cells were collected up to 96 hours after treatment, stained with propidium iodide and analyzed by FACS using a Becton-Dickinson FacsScan and CellQuest software. Caspase Activity
Oligonucleotides homologous to the 3′ overhang sequence (11mer-1: pGTTAGGGTTAG; SEQ ID NO:5), complementary to this sequence (11mer-2: pCTAACCCTAAC; SEQ ID NO:9) and unrelated to the telomere sequence (11mer-3: pGATCGATCGAT; SEQ ID NO:10) were synthesized. The three 11mer oligonucleotides were added to cultures of Jurkat cells, an established line of human T lymphocytes, a cell type reported to undergo apoptosis in response to telomere disruption [Karlseder, J., et al, (1999) Science 283, 1321–1325] and DNA damaging ionizing radiation (IR) [Vigorito, E., et al, (1999), Hematol Cell Ther 41, 153–161]. Duplicate cultures of Jurkat cells were treated with a final concentration of 40 μM 11mer-1, -2 or -3, oligonucleotides, or an equal volume of diluent (water) as a control. Cells were collected up to 96 hours after treatment, stained with propidium iodideandanalyzed by FACS. See also Example 13 and FIGS. 19A–19H.
To further confirm the specificity of these responses to the telomere overhang sequence, three variations were tested. […]

[2] = system: normal (control) fibroblasts; assay: FACS analysis of normal (control) fibroblasts; type: cell-based, human; details: 40 μM
Procedure: Fibroblasts were obtained from an NBS (Nijmegen breakage syndrome) patient, in which p95/Nbs1 was below the level of detection. Preconfluent cultures or normal (control) fibroblasts and NBS fibroblasts were treated with 40 μM of the oligonucleotides and collected after 48 hours for FACS analysis (FIGS. 34A–34H). The averages and standard deviations were calculated from triplicate cultures of each condition. FACS profiles from one representative experiment of three are shown.

[3] = system: MM-AN cells; assay: Tumorigenicity of pretreated MM-AN cells in SCID mice; type: in vivo; details: cells pretreated 40 μM 48 hours; day 18 (diluent 322±45)
Procedure: To study the effect of T-oligo on the tumorigenicity of MM-AN cells, cells were grown in DMEM with 5% fetal bovine serum (FBS) and treated with 40 μM of T-oligo, complement, or diluent alone for 48 hours. The cells were then harvested with trypsin/EDTA and the percent viability determined by trypan blue exclusion. […] The tumorigenicity of these melanoma cells was determined by injecting 1×10^6 viable cells in balanced salt solution subcutaneously over the right scapular region of SCID mice (3 groups of 5 mice) to produce tumors. The animals were sacrificed by CO2 inhalation 18 days after treatment and the tumor size evaluated with calipers. Tumors were processed for hematoxylin and eosin staining and the melanocytic origin of the tumors was confirmed by immunohistochemical staining of the lesion using HMB-45 monoclonal antibody, which recognizes gp-100, a conventional marker for human melanoma.

[4] = system: melanin in ear skin; assay: In vivo melanogenic activity on ears (Fontana Masson); design: species or system mice; details: 100 μM once daily in propylene glycol; 15 days
Procedure: In another experiment, mice were treated once daily with either 100 μM pTpT or SEQ ID NO: 1 containing a 5′ phosphate in propylene glycol on one ear, or vehicle alone on the other ear. After 15 days, when the ears were sectioned and stained with Fontana Masson to detect melanin compared to vehicle controls, there was a 70% increase in pigmentation in pTpT-treated ears and a 250% increase with SEQ ID NO: 1. Thus, both compounds comprising as few as 2 and as many as 9 nucleotides are effective at producing the in vitro UV-mimetic effects in vivo.

[5] = Skin penetration of fluorescently-labeled oligonucleotides (ear); type: in vivo, Mice; details: in propylene glycol, 4 hours
Procedure: The compounds of the present invention were tested for skin penetration and in vivo melanogenic activity. Mice were treated (on their ears) with fluorescently-labeled pTpT or SEQ ID NO: 1 (comprising a 5′ phosphate) in propylene glycol for 4 hours, then ear skin was sectioned and examined by confocal microscopy. […] Thus pTpT and SEQ ID NO: 1 comparably penetrate the skin barrier.

Substance	cell cycle profile ([1]; 96 hours)	apoptosis (sub-G0/G1 peak) ([1]; 40 μM, 96 hours)	S phase growth arrest [2]	apoptosis in human T cells [1]	Mean tumor volume [3] [mm^3]	increase in pigmentation compared to vehicle controls [4] [%]	skin penetration (confocal microscopy) [5]	cells accumulated in the S-phase [1] [%]	treated cells in the S-phase ([1]; 20 μM, 72 hours) [%]	further results
11mer-1-S: phosphorothioate 11mer-1 (dG*dT*dT*dA*dG*dG*dG*dT*dT*dA*dG; further chemistry not fully specified)	neither of the oligonucleotides affected	had no effect								
pCTAACCCTAAC (DNA, 5' {P}, backbone not given here) [SEQ ID NO: 9, reference compound]			unaffected	did not significantly increase apoptosis	238±50					
pGAGTATGAG (DNA, 5' {P}, backbone not given here) [SEQ ID NO: 1]						250	brightly stained epidermis and hair follicles			
pGATCGATCGAT (DNA {P}-dGdAdTdCdGdAdTdCdGdAdT) [SEQ ID NO: 10, reference compound]			unaffected	did not significantly increase apoptosis						
pGTTAGGGTTAG (DNA {P}-dGdTdTdAdGdGdGdTdTdAdG) [SEQ ID NO: 5]	neither of the oligonucleotides affected	induced extensive apoptosis	exhibit an S phase growth arrest within 24 hours	induced human T cells to undergo apoptosis	56±13			61	58±1	apoptotic cells (sub-G0/G1 DNA content) ([1]; 40 μM, 72 hours): 13%; cells in S phase ([1]; 40 μM, 72 hours): 38%; apoptotic cells ([1]; 40 μM, 96 hours): 20±3%; cells accumulated in the S phase ([1]; 40 μM, within 48 hours): 50%; activity of the two complete telomere overhang homologs ([1]; separate paired cultures): equal in activity
thymidine dinucleotide [pTpT]						70	brightly stained epidermis and hair follicles	45	53±1	higher concentration needed to duplicate the 11mer-1 effect on cell cycle arrest [1]: 4 fold; apoptosis ([1]; 20 μM, even at 96 hours): No apoptosis was detected
